Reference: patent publication US12486273B2 (Hoffmann-La Roche Inc., priority 2019, dated 2025)

Assays:
Assay type in all cases: cell-based
human TLR7 = human TLR7 (Homo sapiens (Human), UniProt Q9NYK1); assay: HEK293-Blue-hTLR-7 cells assay; details: HEK293-Blue-hTLR7 cells, R848 stimulation, 20 hrs, SEAP reporter; read-out: HEK/hTLR7 IC50
Description: HEK293-BLUE-hTLR-7 CELLS ASSAY:
(§1) A stable HEK293-Blue-hTLR-7 cell line was purchased from InvivoGen (Cat. #: hkb-htlr7, San Diego, California, USA). These cells were originally designed for studying the stimulation of human TLR7 by monitoring the activation of NF-κB. A SEAP (secreted embryonic alkaline phosphatase) reporter gene was placed under the control of the IFN-β minimal promoter fused to five NF-κB and AP-1-binding sites. The SEAP was induced by activating NF-κB and AP-1 via stimulating HEK-Blue hTLR7 cells with TLR7 ligands. Therefore the reporter expression was declined by TLR7 antagonist under the stimulation of a ligand, such as R848 (Resiquimod), for incubation of 20 hrs. The cell culture supernatant SEAP reporter activity was determined using QUANTI-Blue™ kit (Cat. #: rep-qb1, Invivogen, San Diego, Ca, USA) at a wavelength of 640 nm, a detection medium that turns purple or blue in the presence of alkaline phosphatase.
(§2) HEK293-Blue-hTLR7 cells were incubated at a density of 250,000˜450,000 cells/mL in a volume of 170 μL in a 96-well plate in Dulbecco's Modified Eagle's medium (DMEM) containing 4.5 g/L glucose, 50 U/mL penicillin, […], […], 2 mM L-glutamine, 10% (v/v) heat-inactivated fetal bovine serum with addition of 20 μL test compound in a serial dilution in the presence of final DMSO at 1% and 10 μL of 20 μM R848 in above DMEM, perform incubation under 37° C. in a CO2 incubator for 20 hrs. Then 20 μL of the supernatant from each well was incubated with 180 μL Quanti-blue substrate solution at 37° C. for 2 hrs and the absorbance was read at 620-655 nm using a spectrophotometer. The signaling pathway that TLR7 activation leads to downstream NF-κB activation has been widely accepted, and therefore similar reporter assay was modified for evaluating TLR7 antagonist.

human TLR8 = human TLR8 (Homo sapiens (Human), UniProt Q9NR97); assay: HEK293-Blue-hTLR-8 cells assay; details: HEK293-Blue-hTLR8 cells, R848 stimulation, 20 hrs, SEAP reporter; read-out: HEK/hTLR8 IC50
Description: HEK293-Blue-hTLR-8 Cells Assay:
as §1, with “HEK293-Blue-hTLR-8” for “HEK293-Blue-hTLR-7”, “hkb-htlr8,” for “hkb-htlr7,”, “TLR8” for “TLR7”, “hTLR8” for “hTLR7”, “R848,” for “R848 (Resiquimod),”, “rep-Qb1,” for “rep-qb1,”
HEK293-Blue-hTLR8 cells were incubated at a density of 250,000-450,000 cells/mL in a volume of 170 μL in a 96-well plate in Dulbecco's Modified Eagle's medium (DMEM) containing 4.5 g/L glucose, 50 U/mL penicillin, […], […], 2 mM L-glutamine, 10% (v/v) heat-inactivated fetal bovine serum with addition of 20 μL test compound in a serial dilution in the presence of final DMSO at 1% and 10 μL of 60 μM R848 in above DMEM, perform incubation under 37° C. in a CO2 incubator for 20 hrs. Then 20 μL of the supernatant from each well was incubated with 180 μL Quanti-blue substrate solution at 37° C. for […] and the absorbance was read at 620˜655 nm using a spectrophotometer. The signaling pathway that TLR8 activation leads to downstream NF-κB activation has been widely accepted, and therefore similar reporter assay was modified for evaluating TLR8 antagonist.

human TLR9 = human TLR9 (Homo sapiens (Human), UniProt Q9NR96); assay: HEK293-Blue-hTLR-9 cells assay; details: HEK293-Blue-hTLR9 cells, ODN2006 stimulation, 20 hrs, SEAP reporter; read-out: HEK/hTLR9 IC50
Description: HEK293-Blue-hTLR-9 Cells Assay:
A stable HEK293-Blue-hTLR-9 cell line was purchased from InvivoGen (Cat. #: hkb-htlr9, San Diego, California, USA). These cells were originally designed for studying the stimulation of human TLR9 by monitoring the activation of NF-κB. A SEAP (secreted embryonic alkaline phosphatase) reporter gene was placed under the control of the IFN-β minimal promoter fused to five NF-κB and AP-1-binding sites. The SEAP was induced by activating NF-κB and AP-via stimulating HEK-Blue hTLR9 cells with TLR9 ligands. Therefore the reporter expression was declined by TLR9 antagonist under the stimulation of a ligand, such as ODN2006 (Cat. #: tlrl-2006-1, Invivogen, San Diego, California, USA), for incubation of 20 hrs. The cell culture supernatant SEAP reporter activity was determined using QUANTI-Blue™ kit (Cat. #: rep-qb1, Invivogen, San Diego, California, USA) at a wavelength of 640 nm, a detection medium that turns purple or blue in the presence of alkaline phosphatase.
as §2, with “HEK293-Blue-hTLR9 cells” for “HEK293-Blue-hTLR7 cells”, “μM ODN2006” for “μM R848”, “2 h” for “2 hrs”, “that TLR9” for “that TLR7”, “evaluating TLR9” for “evaluating TLR7”

Sequence of human TLR9 (Q9NR96 26-1032): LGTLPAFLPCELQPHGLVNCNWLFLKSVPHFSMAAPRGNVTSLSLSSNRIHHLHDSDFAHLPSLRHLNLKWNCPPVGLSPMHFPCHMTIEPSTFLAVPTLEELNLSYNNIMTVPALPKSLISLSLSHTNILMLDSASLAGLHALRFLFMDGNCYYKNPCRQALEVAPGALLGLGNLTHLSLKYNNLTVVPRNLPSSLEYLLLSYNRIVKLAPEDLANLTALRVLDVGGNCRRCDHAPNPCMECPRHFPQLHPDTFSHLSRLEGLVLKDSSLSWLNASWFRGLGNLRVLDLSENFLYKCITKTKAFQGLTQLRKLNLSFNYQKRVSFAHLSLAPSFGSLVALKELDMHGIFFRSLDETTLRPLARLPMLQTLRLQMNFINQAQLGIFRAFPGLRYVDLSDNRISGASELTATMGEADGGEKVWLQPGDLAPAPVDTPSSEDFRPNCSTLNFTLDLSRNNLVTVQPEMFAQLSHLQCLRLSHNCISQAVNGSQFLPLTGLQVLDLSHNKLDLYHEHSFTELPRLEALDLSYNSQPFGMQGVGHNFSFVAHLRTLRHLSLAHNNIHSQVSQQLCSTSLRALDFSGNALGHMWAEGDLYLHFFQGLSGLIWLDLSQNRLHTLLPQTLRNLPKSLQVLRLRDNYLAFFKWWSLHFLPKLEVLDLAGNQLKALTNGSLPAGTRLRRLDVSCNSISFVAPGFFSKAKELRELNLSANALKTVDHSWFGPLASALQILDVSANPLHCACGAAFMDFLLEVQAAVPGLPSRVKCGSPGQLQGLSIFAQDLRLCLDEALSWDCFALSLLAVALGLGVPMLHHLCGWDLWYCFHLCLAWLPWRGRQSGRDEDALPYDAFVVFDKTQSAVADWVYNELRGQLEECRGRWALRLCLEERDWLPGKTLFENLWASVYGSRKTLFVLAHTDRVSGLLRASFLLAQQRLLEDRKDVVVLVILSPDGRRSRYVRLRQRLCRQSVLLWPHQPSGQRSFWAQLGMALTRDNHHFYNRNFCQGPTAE
Sequence of human TLR7 (Q9NYK1 27-1049): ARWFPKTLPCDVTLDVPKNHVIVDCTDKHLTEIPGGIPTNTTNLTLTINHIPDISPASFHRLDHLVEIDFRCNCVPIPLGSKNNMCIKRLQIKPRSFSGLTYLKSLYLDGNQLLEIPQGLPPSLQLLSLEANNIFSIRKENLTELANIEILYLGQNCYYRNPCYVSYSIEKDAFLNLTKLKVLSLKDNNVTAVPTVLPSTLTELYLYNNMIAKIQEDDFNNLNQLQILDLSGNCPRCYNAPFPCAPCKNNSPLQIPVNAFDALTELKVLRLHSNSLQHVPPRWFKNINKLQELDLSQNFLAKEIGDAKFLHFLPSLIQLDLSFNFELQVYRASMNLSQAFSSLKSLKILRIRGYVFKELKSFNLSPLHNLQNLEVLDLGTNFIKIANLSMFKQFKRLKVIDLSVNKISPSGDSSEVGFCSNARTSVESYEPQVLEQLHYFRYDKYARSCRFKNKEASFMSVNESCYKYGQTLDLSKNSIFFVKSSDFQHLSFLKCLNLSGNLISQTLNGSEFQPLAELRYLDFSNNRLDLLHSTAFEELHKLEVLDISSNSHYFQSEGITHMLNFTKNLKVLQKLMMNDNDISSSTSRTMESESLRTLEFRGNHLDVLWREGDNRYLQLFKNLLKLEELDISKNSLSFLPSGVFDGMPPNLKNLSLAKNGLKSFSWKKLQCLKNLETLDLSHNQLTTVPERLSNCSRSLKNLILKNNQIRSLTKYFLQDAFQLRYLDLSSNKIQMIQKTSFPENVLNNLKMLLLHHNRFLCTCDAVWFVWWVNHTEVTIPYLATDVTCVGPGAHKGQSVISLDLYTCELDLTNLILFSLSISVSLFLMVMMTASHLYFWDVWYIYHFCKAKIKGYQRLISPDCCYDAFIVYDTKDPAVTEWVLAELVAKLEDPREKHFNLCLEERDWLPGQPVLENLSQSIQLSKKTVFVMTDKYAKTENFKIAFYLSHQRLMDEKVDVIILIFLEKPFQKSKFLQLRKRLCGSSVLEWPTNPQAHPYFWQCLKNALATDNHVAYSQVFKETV
Sequence of human TLR8 (Q9NR97 27-1041): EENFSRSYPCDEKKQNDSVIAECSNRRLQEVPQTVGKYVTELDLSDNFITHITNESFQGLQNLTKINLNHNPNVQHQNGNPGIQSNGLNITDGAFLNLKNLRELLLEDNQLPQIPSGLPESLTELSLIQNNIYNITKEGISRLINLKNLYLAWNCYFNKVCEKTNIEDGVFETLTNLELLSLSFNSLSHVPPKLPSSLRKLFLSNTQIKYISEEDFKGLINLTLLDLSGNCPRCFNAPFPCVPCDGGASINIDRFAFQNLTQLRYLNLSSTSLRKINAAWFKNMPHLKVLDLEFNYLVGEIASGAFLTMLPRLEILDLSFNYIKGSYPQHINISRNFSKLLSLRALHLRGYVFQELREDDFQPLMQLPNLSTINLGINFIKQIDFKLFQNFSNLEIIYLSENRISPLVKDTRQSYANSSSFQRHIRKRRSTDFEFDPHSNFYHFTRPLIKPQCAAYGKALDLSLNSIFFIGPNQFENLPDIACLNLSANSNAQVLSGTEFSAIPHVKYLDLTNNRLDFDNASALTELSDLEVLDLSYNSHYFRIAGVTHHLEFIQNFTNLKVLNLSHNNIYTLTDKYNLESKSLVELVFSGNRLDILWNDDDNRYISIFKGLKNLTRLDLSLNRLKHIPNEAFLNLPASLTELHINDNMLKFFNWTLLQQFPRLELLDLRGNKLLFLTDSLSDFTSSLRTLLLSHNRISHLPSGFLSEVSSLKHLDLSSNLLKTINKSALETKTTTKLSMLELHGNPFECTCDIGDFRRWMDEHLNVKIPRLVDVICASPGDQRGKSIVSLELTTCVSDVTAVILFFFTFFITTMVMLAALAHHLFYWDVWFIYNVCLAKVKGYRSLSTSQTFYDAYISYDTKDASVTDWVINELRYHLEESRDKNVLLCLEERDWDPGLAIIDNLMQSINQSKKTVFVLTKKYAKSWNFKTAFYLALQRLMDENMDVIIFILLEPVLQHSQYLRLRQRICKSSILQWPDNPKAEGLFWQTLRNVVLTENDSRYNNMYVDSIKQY

| Structure (SMILES) | IC50 (human TLR7) | IC50 (human TLR8) | IC50 (human TLR9) |
| --- | --- | --- | --- |
| C[C@@H]1CN(c2ccc(C#N)c3ncccc23)C[C@@H]2C[C@H](N3CCc4cc(N5CCNCC5)ccc4C3)CN21 [Example 10, 5-[(4R,7S,8aS)-4-methyl-7-(6-piperazin-1-yl-3,4-dihydro-1H-isoquinolin-2-yl)-3,4,6,7,8,8a-hexahydro-1H-pyrrolo[1,2-a]pyrazin-2-yl]quinoline-8-carbonitrile] | 30.1 nM | 24.9 nM | 81.1 nM |
| CO[C@@H]1CN(c2ccc3c(n2)CCN([C@H]2C[C@H]4CN(c5ccc(C#N)c6ncccc56)C[C@@H](C)N4C2)C3)C[C@H]1N [Example 11, 5-[(4R,7S,8aS)-7-[2-[(3R,4R)-3-amino-4-methoxy-pyrrolidin-1-yl]-7,8-dihydro-5H-1,6-naphthyridin-6-yl]-4-methyl-3,4,6,7,8,8a-hexahydro-1H-pyrrolo[1,2-a]pyrazin-2-yl]quinoline-8-carbonitrile] | 23.4 nM | 8.5 nM | 59.2 nM |
| C[C@@H]1CN(c2ccc(C#N)c3ncccc23)C[C@@H]2C[C@@H](N(C)c3ccc4c(n3)CCNC4)CN21 [Example 5, 5-[(4R,7R,8aS)-4-methyl-7-[methyl(5,6,7,8-tetrahydro-1,6-naphthyridin-2-yl)amino]-3,4,6,7,8,8a-hexahydro-1H-pyrrolo[1,2-a]pyrazin-2-yl]quinoline-8-carbonitrile] | 16.9 nM | 2.9 nM | 78.1 nM |
| [2H]c1ccc2c(N3C[C@@H]4C[C@H](N5CCC6(CCCNC6)CC5)CN4[C@H](C)C3)ccc(C#N)c2n1 [Example 21, 2-Deuterio-5-[(4R,7S,8aS)-7-(2,9-diazaspiro[5.5]undecan-9-yl)-4-methyl-3,4,6,7,8,8a-hexahydro-1H-pyrrolo[1,2-a]pyrazin-2-yl]quinoline-8-carbonitrile] | 30.4 nM | 10.3 nM | 45.1 nM |
| C[C@@H]1CN(c2ccc(C#N)c3ncccc23)C[C@@H]2C[C@@H](Nc3ccc4c(n3)CCN(C)C4)CN21 [Example 4, 5-[(4R,7R,8aS)-4-methyl-7-[(6-methyl-7,8-dihydro-5H-1,6-naphthyridin-2-yl)amino]-3,4,6,7,8,8a-hexahydro-1H-pyrrolo[1,2-a]pyrazin-2-yl]quinoline-8-carbonitrile] | 21.7 nM | 6.3 nM | 147 nM |
| C[C@@H]1CN(c2ccc(C#N)c3ncccc23)C[C@@H]2C[C@@H](Nc3ncc4c(n3)CCNC4)CN21 [Example 6, 5-[(4R,7R,8aS)-4-methyl-7-(5,6,7,8-tetrahydropyrido[4,3-d]pyrimidin-2-ylamino)-3,4,6,7,8,8a-hexahydro-1H-pyrrolo[1,2-a]pyrazin-2-yl]quinoline-8-carbonitrile] | 18.8 nM | 12.9 nM | 157 nM |
| C[C@@H]1CN(c2ccc(C#N)c3ncccc23)C[C@@H]2CC(N3CCN(c4cc5c(cn4)CCNC5)CC3)CN21 (stereo in doubt) [Example 13, 5-[(4R,7R,8aS)-4-methyl-7-[4-(5,6,7,8-tetrahydro-2,6-naphthyridin-3-yl)piperazin-1-yl]-3,4,6,7,8,8a-hexahydro-1H-pyrrolo[1,2-a]pyrazin-2-yl]quinoline-8-carbonitrile] | 14.9 nM | 8.2 nM | 49 nM |
| [2H]c1ccc2c(N3C[C@@H]4C[C@H](N5CC(C)(N)C5)CN4[C@H](C)C3)ccc(C#N)c2n1 [Example 17, 5-[(4R,7S,8aS)-7-(3-amino-3-methyl-azetidin-1-yl)-4-methyl-3,4,6,7,8,8a-hexahydro-1H-pyrrolo[1,2-a]pyrazin-2-yl]-2-deuterio-quinoline-8-carbonitrile] | 11.3 nM | 14.7 nM | 175 nM |

The next lines start with the values.

| IC50 (human TLR7) | IC50 (human TLR8) | IC50 (human TLR9) | Structure (SMILES) |
| --- | --- | --- | --- |
| 11.1 nM | 3.6 nM | 63.1 nM | C[C@@H]1CN(c2ccc(C#N)c3ncccc23)C[C@@H]2C[C@@H](Nc3ccc4c(n3)C[C@H](C)NC4)CN21 [Example 8A, 5-[(4R,7R,8aS)-4-methyl-7-[[(7S)-7-methyl-5,6,7,8-tetrahydro-1,6-naphthyridin-2-yl]amino]-3,4,6,7,8,8a-hexahydro-1H-pyrrolo[1,2-a]pyrazin-2-yl]quinoline-8-carbonitrile] |
| 17.7 nM | 9 nM | 53.5 nM | C[C@@H]1CN(c2ccc(C#N)c3ncccc23)C[C@@H]2C[C@@H](Nc3ccc4c(n3)CN[C@@H]4C)CN21 [Example 7A, 5-[(4R,7R,8aS)-4-methyl-7-[[(5R)-5-methyl-6,7-dihydro-5H-pyrrolo[3,4-b]pyridin-2-yl]amino]-3,4,6,7,8,8a-hexahydro-1H-pyrrolo[1,2-a]pyrazin-2-yl]quinoline-8-carbonitrile] |
| 29.8 nM | 11.3 nM | 56.5 nM | C[C@@H]1NCc2nc(N[C@@H]3C[C@H]4CN(c5ccc(C#N)c6ncccc56)C[C@@H](C)N4C3)ccc21 [Example 7B, 5-[(4R,7R,8aS)-4-methyl-7-[[(5S)-5-methyl-6,7-dihydro-5H-pyrrolo[3,4-b]pyridin-2-yl]amino]-3,4,6,7,8,8a-hexahydro-1H-pyrrolo[1,2-a]pyrazin-2-yl]quinoline-8-carbonitrile] |
| 14.7 nM | 7.5 nM | 89.4 nM | C[C@@H]1Cc2nc(N[C@@H]3C[C@H]4CN(c5ccc(C#N)c6ncccc56)C[C@@H](C)N4C3)ccc2CN1 [Example 8B, 5-[(4R,7R,8aS)-4-methyl-7-[[(7R)-7-methyl-5,6,7,8-tetrahydro-1,6-naphthyridin-2-yl]amino]-3,4,6,7,8,8a-hexahydro-1H-pyrrolo[1,2-a]pyrazin-2-yl]quinoline-8-carbonitrile] |
